{"source": "ChEMBL document CHEMBL6096719", "about": "“Kidney Targeting Smart Antibiotic Discovery: Multimechanism Pleuromutilins for Pyelonephritis Therapy” (J Med Chem, 2025)", "key": {"[1]": {"tested_on": "Salmonella enterica", "experiment": "Antibacterial activity against Salmonella enterica ATCC 14028 assessed as inhibition of bacterial growth incubated for 24 hrs by broth microdilution method", "type": "functional"}, "[2]": {"target": "Voltage-gated inwardly rectifying potassium channel KCNH2 (Homo sapiens, UniProt Q12809)", "sequence (Q12809 whole entry)": "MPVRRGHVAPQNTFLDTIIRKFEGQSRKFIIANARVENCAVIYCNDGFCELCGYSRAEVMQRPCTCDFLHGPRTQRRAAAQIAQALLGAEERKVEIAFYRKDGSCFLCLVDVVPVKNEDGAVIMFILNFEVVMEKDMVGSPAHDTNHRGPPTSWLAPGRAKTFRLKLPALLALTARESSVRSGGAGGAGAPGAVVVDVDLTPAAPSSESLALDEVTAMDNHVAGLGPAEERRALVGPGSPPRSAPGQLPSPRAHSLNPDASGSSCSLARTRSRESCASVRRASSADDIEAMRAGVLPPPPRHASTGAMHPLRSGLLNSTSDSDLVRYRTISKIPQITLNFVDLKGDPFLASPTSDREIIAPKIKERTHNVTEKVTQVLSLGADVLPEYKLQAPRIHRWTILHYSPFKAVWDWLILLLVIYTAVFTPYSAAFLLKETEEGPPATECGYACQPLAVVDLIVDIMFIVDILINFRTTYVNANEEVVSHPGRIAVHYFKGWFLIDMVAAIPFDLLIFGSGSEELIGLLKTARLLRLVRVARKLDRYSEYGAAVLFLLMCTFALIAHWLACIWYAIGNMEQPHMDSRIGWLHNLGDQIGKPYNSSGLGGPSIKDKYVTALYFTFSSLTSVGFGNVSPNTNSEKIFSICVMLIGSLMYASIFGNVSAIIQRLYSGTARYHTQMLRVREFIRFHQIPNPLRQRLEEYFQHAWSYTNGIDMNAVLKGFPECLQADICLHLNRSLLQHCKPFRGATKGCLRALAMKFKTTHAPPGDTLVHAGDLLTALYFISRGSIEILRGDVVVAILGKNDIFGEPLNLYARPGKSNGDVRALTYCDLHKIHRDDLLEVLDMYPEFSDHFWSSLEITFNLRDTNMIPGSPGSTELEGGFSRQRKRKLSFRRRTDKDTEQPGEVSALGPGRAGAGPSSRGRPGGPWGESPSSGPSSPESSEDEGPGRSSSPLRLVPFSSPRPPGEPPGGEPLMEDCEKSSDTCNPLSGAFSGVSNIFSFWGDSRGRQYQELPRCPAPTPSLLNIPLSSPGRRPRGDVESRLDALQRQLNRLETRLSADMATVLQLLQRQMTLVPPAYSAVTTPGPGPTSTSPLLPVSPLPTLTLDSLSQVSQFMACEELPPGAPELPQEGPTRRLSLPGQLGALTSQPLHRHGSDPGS", "experiment": "Inhibition of hERG expressed in HEK293 cells assessed as inhibition of tail current measured at holding potential of -80 mV by automated patch clamp analysis", "type": "toxicity, cell-based"}, "[3]": {"experiment": "Cytotoxicity against human HEK293 cells assessed as reduction in cell viability incubated for 24 hrs by CCK8 assay", "type": "toxicity, cell-based"}, "[4]": {"tested_on": "Escherichia coli", "experiment": "Antibacterial activity against Escherichia coli ATCC25922 infected in pyelonephritis C57BL/6 mouse model assessed as decrease in kidney swelling at 3 to 10 mg/kg, iv qd for 3 days administered at 2 days post-infection", "type": "functional, organism-based", "conditions": "dose 3-10 mg/kg, time 3.0 day"}, "[5]": {"tested_on": "Cell membrane", "experiment": "Disruption of cell membrane in methicillin-resistant Staphylococcus aureus ATCC33591 assessed as decrease in intracellular pH at 0.125 ug/ml incubated for 30 mins by cFDA-SE probe based fluorescence analysis", "conditions": "dose 0.125 µg/ml"}, "[6]": {"tested_on": "Cell membrane", "experiment": "Disruption of cell membrane in methicillin-resistant Staphylococcus aureus ATCC33591 assessed as induction of cell death by measuring increase in propidium iodide fluorescence intensity at 0.5 ug/ml incubated for 2 hrs by bright field microscopy", "type": "subcellular", "conditions": "dose 0.5 µg/ml"}, "[7]": {"tested_on": "Cell membrane", "experiment": "Disruption of cell membrane in Escherichia coli ATCC25922 assessed as increase in extracellular ATP content at 0.125 to 0.25 ug/ml incubated for 30 mins by luminescence based analysis", "conditions": "dose 0.125-0.25 µg/ml"}, "[8]": {"tested_on": "Cell membrane", "experiment": "Disruption of cell membrane in methicillin-resistant Staphylococcus aureus ATCC33591 assessed as leakage of bacterial cell contents by measuring increase in conductivity of bacterial solution at MIC measured for 6 hrs by conductivity meter analysis"}, "[9]": {"tested_on": "Escherichia coli", "experiment": "Antibacterial activity against Escherichia coli ATCC25922 infected in pyelonephritis C57BL/6 mouse model assessed as decrease in bacterial load in kidney at 3 to 10 mg/kg, iv qd for 3 days administered at 2 days post-infection", "type": "functional, organism-based", "conditions": "dose 3-10 mg/kg, time 3.0 day"}, "[10]": {"experiment": "Drug uptake in Sprague-Dawley rat kidney at 5 mg/kg, iv measured for 6 hrs by LC-MS/MS analysis", "type": "ADME, organism-based", "conditions": "in vivo"}, "[11]": {"tested_on": "Mycoplasmopsis synoviae", "experiment": "Anti-mycoplasma activity against Mycoplasma synoviae WVU1853 NCTC10124 assessed as inhibition of bacterial growth incubated for 3 to 5 days by broth microdilution method", "type": "functional", "conditions": "time 3-5 day"}, "[12]": {"tested_on": "Escherichia coli", "experiment": "Antibiofilm activity against Escherichia coli ATCC25922 assessed as disruption of preformed biofilms at 0.5 ug/ml incubated for 24 hrs with preformed biofilms by crystal violet staining based analysis", "type": "functional", "conditions": "dose 0.5 µg/ml"}, "[13]": {"tested_on": "Escherichia coli", "experiment": "Antibacterial activity against Escherichia coli ATCC25922 infected in pyelonephritis C57BL/6 mouse model assessed as decrease in IL-1 beta level in kidney at 3 to 10 mg/kg, iv qd for 3 days administered at 2 days post-infection by ELISA", "type": "functional, organism-based", "conditions": "dose 3-10 mg/kg, time 3.0 day"}, "[14]": {"tested_on": "Escherichia coli", "experiment": "Antibacterial activity against Escherichia coli ATCC25922 infected in pyelonephritis C57BL/6 mouse model assessed as decrease in IL-6 level in kidney at 3 to 10 mg/kg, iv qd for 3 days administered at 2 days post-infection by ELISA", "type": "functional, organism-based", "conditions": "dose 3-10 mg/kg, time 3.0 day"}, "[15]": {"experiment": "Oral bioavailability in Sprague-Dawley rat at 10 mg/kg", "type": "ADME, organism-based", "conditions": "in vivo"}, "[16]": {"tested_on": "Staphylococcus aureus", "experiment": "Antibacterial activity against methicillin-resistant Staphylococcus aureus 171 assessed as inhibition of bacterial growth incubated for 24 hrs by broth microdilution method", "type": "functional"}, "[17]": {"target": "T1, Solute carrier family 22 member 2 (Homo sapiens, UniProt O15244)", "T1 sequence (O15244 whole entry)": "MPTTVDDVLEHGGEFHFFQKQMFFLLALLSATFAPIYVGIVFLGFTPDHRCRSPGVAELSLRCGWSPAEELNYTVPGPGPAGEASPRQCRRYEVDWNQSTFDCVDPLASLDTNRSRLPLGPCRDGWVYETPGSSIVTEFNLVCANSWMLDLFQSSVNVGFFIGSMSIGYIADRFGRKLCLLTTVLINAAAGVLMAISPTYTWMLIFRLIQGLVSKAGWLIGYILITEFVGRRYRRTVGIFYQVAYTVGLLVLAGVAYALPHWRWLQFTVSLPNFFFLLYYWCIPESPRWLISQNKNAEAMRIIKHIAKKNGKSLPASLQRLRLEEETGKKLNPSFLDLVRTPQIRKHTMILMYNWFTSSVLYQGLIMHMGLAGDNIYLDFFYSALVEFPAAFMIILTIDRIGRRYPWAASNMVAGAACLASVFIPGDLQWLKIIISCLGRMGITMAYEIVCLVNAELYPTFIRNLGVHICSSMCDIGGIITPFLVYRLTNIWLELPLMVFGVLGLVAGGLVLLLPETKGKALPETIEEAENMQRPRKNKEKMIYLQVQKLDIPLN", "experiment": "Substrate activity at human OCT2 transfected in HEK293 cells assessed as increase in intracellular drug content at 100 uM measured after 5 mins", "type": "ADME, cell-based", "conditions": "hek293, 5 min"}, "[18]": {"experiment": "Drug uptake in Sprague-Dawley rat liver at 5 mg/kg, iv measured for 6 hrs by LC-MS/MS analysis", "type": "ADME, organism-based", "conditions": "in vivo"}, "[19]": {"tested_on": "Staphylococcus aureus", "experiment": "Antibacterial activity against methicillin-resistant Staphylococcus aureus ATCC33591 infected in systemic intraperitoneal infection Kunming mouse model assessed as decrease in inflammation, neutrophil infiltration, alveolar structure destruction, leukocyte infiltration, interstitial thickening in lungs at 5 mg/kg, ip treated at 1 hr post-infection and measured after 7 days by Hematoxylin-Eosin staining based analysis", "type": "functional, organism-based", "conditions": "time 7.0 day"}, "[20]": {"experiment": "Observed MRT (0 to infinity) in Sprague-Dawley rat at 10 mg/kg, po", "type": "ADME, organism-based", "conditions": "in vivo"}, "[21]": {"experiment": "AUC (0 to 24 hrs) in Sprague-Dawley rat at 10 mg/kg, po", "type": "ADME, organism-based", "conditions": "in vivo"}, "[22]": {"experiment": "Observed AUC (0 to infinity) in Sprague-Dawley rat at 10 mg/kg, po", "type": "ADME, organism-based", "conditions": "in vivo"}, "[23]": {"tested_on": "Escherichia coli", "experiment": "Antibacterial activity against Escherichia coli ATCC25922 infected in pyelonephritis C57BL/6 mouse model assessed as decrease in inflammatory cell infiltration in kidney at 3 to 10 mg/kg, iv qd for 3 days administered at 2 days post-infection by Hematoxylin-Eosin staining based analysis", "type": "functional, organism-based", "conditions": "dose 3-10 mg/kg, time 3.0 day"}, "[24]": {"tested_on": "Escherichia coli", "experiment": "Antibacterial activity against Escherichia coli ATCC25922 infected in pyelonephritis C57BL/6 mouse model assessed as restoration of normal renal cortex and pelvis structures at >=5 mg/kg, iv qd for 3 days administered at 2 days post-infection by Hematoxylin-Eosin staining based analysis", "type": "functional, organism-based", "conditions": "time 3.0 day"}, "[25]": {"tested_on": "Cell membrane", "experiment": "Disruption of cell membrane in methicillin-resistant Staphylococcus aureus ATCC33591 assessed as increase in extracellular ATP content at 0.125 to 0.25 ug/ml incubated for 30 mins by luminescence based analysis", "conditions": "dose 0.125-0.25 µg/ml"}, "[26]": {"tested_on": "Mycoplasma genitalium", "experiment": "Anti-mycoplasma activity against Mycoplasma genitalium G37 ATCC33530 assessed as inhibition of bacterial growth incubated for 7 to 14 days by broth microdilution method", "type": "functional", "conditions": "Mycoplasmoides genitalium, time 7-14 day"}, "[27]": {"experiment": "Toxicity against methicillin-resistant Staphylococcus aureus ATCC33591 infected in systemic intraperitoneal infection Kunming mouse model assessed as mild liver damage at 20 mg/kg, ip treated at 1 hr post-infection and measured after 7 days by Hematoxylin-Eosin staining based analysis", "type": "organism-based", "conditions": "in vivo, 168 h, time 7 day"}}, "note": "Active and inactive are the calls of the source. No cut-off for these calls is given here.", "data": [{"compound": "C=C[C@]1(C)C[C@@H](OC(=O)CSc2nc3cc[n+](Cc4ccc(C)cc4)cc3[nH]2)[C@]2(C)[C@H](C)CC[C@]3(CCC(=O)[C@H]32)[C@@H](C)[C@@H]1O.[Br-]", "values": [{"measurement": "MIC", "setting": "[1]", "value": "< 1", "unit": "µg/mL"}, {"measurement": "IC50", "setting": "[2]", "value": 71.5, "unit": "µM"}, {"measurement": "CC50 at 24 h", "setting": "[3]", "value": 96.4, "unit": "µM"}, {"measurement": "Activity", "setting": "[4]", "value": "Active"}, {"measurement": "Activity", "setting": "[5]", "value": "Active"}, {"measurement": "Activity", "setting": "[6]", "value": "Active"}, {"measurement": "Activity", "setting": "[7]", "value": "Active"}, {"measurement": "Activity", "setting": "[8]", "value": "Active"}, {"measurement": "Activity", "setting": "[9]", "value": "Active"}, {"measurement": "Drug uptake", "setting": "[10]", "value": "Active"}, {"measurement": "MIC", "setting": "[11]", "value": "< 0.04", "unit": "µg/mL"}, {"measurement": "Activity", "setting": "[12]", "value": 88.55, "unit": "%"}, {"measurement": "Activity", "setting": "[13]", "value": "Dose-dependent-effect"}, {"measurement": "Activity", "setting": "[14]", "value": "Dose-dependent-effect"}, {"measurement": "bioavailability", "setting": "[15]", "value": 47.9, "unit": "%"}, {"measurement": "MIC", "setting": "[16]", "value": 4, "unit": "µg/mL"}, {"measurement": "Activity", "setting": "[17]", "value": "Active"}, {"measurement": "Drug uptake", "setting": "[18]", "value": "Active"}, {"measurement": "Activity", "setting": "[19]", "value": "Active; Nearly Restoration Of Normal Histology Observed"}, {"measurement": "MRT inf", "setting": "[20]", "value": 2.46, "unit": "h"}, {"measurement": "AUC(0-t)", "setting": "[21]", "value": 14600, "unit": "ng·h/mL"}, {"measurement": "AUC(0-inf)", "setting": "[22]", "value": 15800, "unit": "ng·h/mL"}, {"measurement": "Activity", "setting": "[23]", "value": "Active"}, {"measurement": "Activity", "setting": "[24]", "value": "Active"}, {"measurement": "Activity", "setting": "[25]", "value": "Active"}, {"measurement": "MIC", "setting": "[26]", "value": "< 0.04", "unit": "µg/mL"}, {"measurement": "Activity", "setting": "[27]", "value": "Toxic"}]}]}
